Results as given in PubChem BioAssay AID2060626 (Molecular Pharmacology Branch, DTP, NCI, 2025).

Test system: 168753-222-R-J1-PDC complex spheroid viability
Test: Anticancer human tumor 168753-222-R-J1-PDC patient-derived bladder carcinoma cell line growth inhibition [CLK]
Settings: for IC50: curve of first compound; for viability, T/C: stronger effect = lower value
Method in brief: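 Multi-cell-type spheroids combined patient-derived tumor cells with HUVEC endothelial cells and human mesenchymal stem cells. Paired agents were dosed in half-log steps down from about clinical Cmax, or from 10 microM where Cmax was unknown.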
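Also: viability measured after seven days of drug exposure.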
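For viability, T/C in this document: luminescence signal used as surrogate for viable cell amount; 100% = DMSO vehicle control wells.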

Compound: NC(=O)C(=Cn1cnc(-c2cc(C(F)(F)F)cc(C(F)(F)F)c2)n1)c1cncnc1 + CNC(=O)c1ccc(Nc2nc(OC3CCCC3)c3c(-c4ccc5nc(C)oc5c4)c[nH]c3n2)c(OC)c1
- IC50 (second compound 0.0316 µM): > 3000 nM
- IC50 (second compound 0.1 µM): 829 nM
- IC50 (second compound 0.316 µM): 142 nM
- IC50 (second compound 1 µM): 10.6 nM
- IC50 (second compound 3.16 µM): < 9.49 nM
- IC50 (second compound 10 µM): < 9.49 nM
- viability, T/C (second compound 0.0316 µM, first compound 0.00949 µM): 103%
- viability, T/C (second compound 0.0316 µM, first compound 0.03 µM): 105%
- viability, T/C (second compound 0.0316 µM, first compound 0.0949 µM): 69%
- viability, T/C (second compound 0.0316 µM, first compound 0.3 µM): 83%
- viability, T/C (second compound 0.0316 µM, first compound 0.949 µM): 72.6%
- viability, T/C (second compound 0.0316 µM, first compound 3 µM): 48.9%
- viability, T/C (second compound 0.1 µM, first compound 0.00949 µM): 105%
- viability, T/C (second compound 0.1 µM, first compound 0.03 µM): 121%
- viability, T/C (second compound 0.1 µM, first compound 0.0949 µM): 89.9%
- viability, T/C (second compound 0.1 µM, first compound 0.3 µM): 59.7%
- viability, T/C (second compound 0.1 µM, first compound 0.949 µM): 58.3%
- viability, T/C (second compound 0.1 µM, first compound 3 µM): 21.5%
- viability, T/C (second compound 0.316 µM, first compound 0.00949 µM): 72.7%
- viability, T/C (second compound 0.316 µM, first compound 0.03 µM): 73.5%
- viability, T/C (second compound 0.316 µM, first compound 0.0949 µM): 61.8%
- viability, T/C (second compound 0.316 µM, first compound 0.3 µM): 28%
- viability, T/C (second compound 0.316 µM, first compound 0.949 µM): 23.1%
- viability, T/C (second compound 0.316 µM, first compound 3 µM): 21.4%
- viability, T/C (second compound 1 µM, first compound 0.00949 µM): 51.8%
- viability, T/C (second compound 1 µM, first compound 0.03 µM): 33.7%
- viability, T/C (second compound 1 µM, first compound 0.0949 µM): 14.7%
- viability, T/C (second compound 1 µM, first compound 0.3 µM): 9.95%
- viability, T/C (second compound 1 µM, first compound 0.949 µM): 2.29%
- viability, T/C (second compound 1 µM, first compound 3 µM): 11.6%
- viability, T/C (second compound 3.16 µM, first compound 0.00949 µM): 23.3%
- viability, T/C (second compound 3.16 µM, first compound 0.03 µM): 14.8%
- viability, T/C (second compound 3.16 µM, first compound 0.0949 µM): 11.7%
- viability, T/C (second compound 3.16 µM, first compound 0.3 µM): 1.87%
- viability, T/C (second compound 3.16 µM, first compound 0.949 µM): 1.14%
- viability, T/C (second compound 3.16 µM, first compound 3 µM): 3.62%
- viability, T/C (second compound 10 µM, first compound 0.00949 µM): 15.3%
- viability, T/C (second compound 10 µM, first compound 0.03 µM): 13.7%
- viability, T/C (second compound 10 µM, first compound 0.0949 µM): 8.71%
- viability, T/C (second compound 10 µM, first compound 0.3 µM): 1.11%
- viability, T/C (second compound 10 µM, first compound 0.949 µM): 2.71%
- viability, T/C (second compound 10 µM, first compound 3 µM): 1.28%
